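Cells were grown in 96-well plates and exposed to each compound for 48 hours at five concentrations; endpoints were interpolated linearly between bracketing concentrations, or set to the highest concentration if not reached. GI50 is the concentration that inhibits growth by half.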 Active and inactive are the calls of the source. No stated cut-off is given here; in the data, active = GI50 up to about 1.1 µM and inactive = higher.
Legend:
Test in all cases: NCI tumour cell line growth inhibition, 48 h
SR = test system: SR
IGROV-1 = test system: IGROV-1
HL-60 = test system: HL-60
RPMI-8226 = test system: RPMI-8226
HOP-92 = test system: HOP-92
RXF 393 = test system: RXF 393
Malme-3M = test system: Malme-3M
MOLT-4 = test system: MOLT-4
UO-31 = test system: UO-31
786-0 = test system: 786-0
SW-620 = test system: SW-620
OVCAR-5 = test system: OVCAR-5
SF-539 = test system: SF-539
A549 = test system: A549
DLD-1 = test system: DLD-1
OVCAR-3 = test system: OVCAR-3
HCT-15 = test system: HCT-15
HOP-62 = test system: HOP-62
NCI/ADR-RES = test system: NCI/ADR-RES
MDA-MB-435 = test system: MDA-MB-435

| Compound | GI50 (SR) | GI50 (IGROV-1) | GI50 (HL-60) | GI50 (RPMI-8226) | GI50 (HOP-92) | GI50 (RXF 393) | GI50 (Malme-3M) | GI50 (MOLT-4) | GI50 (UO-31) | GI50 (786-0) | GI50 (SW-620) | GI50 (OVCAR-5) | GI50 (SF-539) | GI50 (A549) | GI50 (DLD-1) | GI50 (OVCAR-3) | GI50 (HCT-15) [µM] | GI50 (HOP-62) | GI50 (NCI/ADR-RES) | GI50 (MDA-MB-435) |
| --- | --- | --- | --- | --- | --- | --- | --- | --- | --- | --- | --- | --- | --- | --- | --- | --- | --- | --- | --- | --- |
| COc1ccc2oc(C(=O)O)c3c2c1CCC3CCC(=O)O (centres undefined) | > 100 µM (inactive) | > 100 µM (inactive) | > 100 µM (inactive) | > 100 µM (inactive) | > 100 µM (inactive) | > 100 µM (inactive) | > 100 µM (inactive) | > 100 µM (inactive) | > 100 µM (inactive) | > 100 µM (inactive) | > 100 µM (inactive) | > 100 µM (inactive) | > 100 µM (inactive) | > 100 µM (inactive) | > 100 µM (inactive) |  |  |  |  |  |
| CCCCNC(=O)C1C2CCC(O2)C1C(=O)O (centres undefined) | 18.8 µM (inactive) | > 100 µM (inactive) |  | 20.9 µM (inactive) | 12 µM (inactive) | 2.07 µM (inactive) | 21.5 µM (inactive) | 18.1 µM (inactive) | 64.6 µM (inactive) | 16.1 µM (inactive) | 1.71 µM (inactive) | > 100 µM (inactive) | 21 µM (inactive) | 31 µM (inactive) | 20.2 µM (inactive) | 16 µM (inactive) | 23.7 | 34.7 µM (inactive) |  |  |
| CCCCCCCC/C=C\CCCCCCCC(=O)NCCN(CCN)C(=O)CCCCCCC/C=C\CCCCCCCC | > 100 µM (inactive) | > 100 µM (inactive) | > 100 µM (inactive) | > 100 µM (inactive) | > 100 µM (inactive) |  | > 100 µM (inactive) | > 100 µM (inactive) | > 100 µM (inactive) | > 100 µM (inactive) | > 100 µM (inactive) | > 100 µM (inactive) |  | > 100 µM (inactive) | > 100 µM (inactive) | 78.7 µM (inactive) | > 100 | > 100 µM (inactive) |  |  |
| COc1ccc(NC(=O)CC(=O)N/N=C/c2ccc(N(CCC#N)S(=O)(=O)c3ccccc3)cc2)cc1 | > 100 µM (inactive) | > 100 µM (inactive) | > 100 µM (inactive) | > 100 µM (inactive) | > 100 µM (inactive) |  | > 100 µM (inactive) | > 100 µM (inactive) | > 100 µM (inactive) | > 100 µM (inactive) | > 100 µM (inactive) | > 100 µM (inactive) |  | > 100 µM (inactive) | > 100 µM (inactive) | > 100 µM (inactive) | > 100 | > 100 µM (inactive) |  |  |
| CCCCCCCCCCC/C(=N/O)c1ccc(O)c2ncccc12 |  |  | 0.19 µM (active) |  | 0.275 µM (active) | 7.67 µM (inactive) | 2.47 µM (inactive) |  | 2.8 µM (inactive) | 10.6 µM (inactive) | 3.86 µM (inactive) | 3.15 µM (inactive) | 2.02 µM (inactive) | 5.69 µM (inactive) | 2.75 µM (inactive) |  |  | 4.26 µM (inactive) |  |  |
| Cn1c2c(c3c(=O)[nH]ncc31)Cc1ccccc1-2 | 3.79 µM (inactive) | 6.79 µM (inactive) | 14.7 µM (inactive) | 15.9 µM (inactive) | 25.2 µM (inactive) | 15.5 µM (inactive) | 16.3 µM (inactive) | 3.45 µM (inactive) | 5.53 µM (inactive) | 6.37 µM (inactive) | 7.24 µM (inactive) | 31.1 µM (inactive) | 19.2 µM (inactive) | 6.56 µM (inactive) |  | 12.7 µM (inactive) | 11.1 | 22.5 µM (inactive) | 16 µM (inactive) | 14.3 µM (inactive) |
| CSc1nc2c(nc(N)n2C2OCC(O)C(O)C2O)c(=O)n1C (centres undefined) | > 100 µM (inactive) | > 100 µM (inactive) | > 100 µM (inactive) |  | > 100 µM (inactive) | > 100 µM (inactive) | > 100 µM (inactive) | > 100 µM (inactive) | > 100 µM (inactive) | > 100 µM (inactive) | > 100 µM (inactive) |  | > 100 µM (inactive) | > 100 µM (inactive) | > 100 µM (inactive) | > 100 µM (inactive) |  | > 100 µM (inactive) |  |  |
| N=C(N)NS(=O)(=O)c1ccc(Nc2c3ccccc3nc3c(C(=O)N4CCN(CCO)CC4)cccc23)cc1 | > 100 µM (inactive) | > 100 µM (inactive) | > 100 µM (inactive) |  | > 100 µM (inactive) | > 100 µM (inactive) | > 100 µM (inactive) | > 100 µM (inactive) | > 100 µM (inactive) | > 100 µM (inactive) | > 100 µM (inactive) | > 100 µM (inactive) | > 100 µM (inactive) | > 100 µM (inactive) | > 100 µM (inactive) | > 100 µM (inactive) | > 100 | > 100 µM (inactive) |  |  |
| O=C(Nc1cc(Cl)c(Cl)cc1Cl)C(=O)C(C(=O)c1ccc2ccccc2c1)C1OC(=O)c2ccccc21 (centres undefined) | 4.66 µM (inactive) | 16.3 µM (inactive) | 13.2 µM (inactive) | 11.9 µM (inactive) | 1.96 µM (inactive) | 3.95 µM (inactive) | 13.2 µM (inactive) |  | 18 µM (inactive) | 8.11 µM (inactive) | 10.8 µM (inactive) | 16.5 µM (inactive) | 3.39 µM (inactive) | 19.1 µM (inactive) | 14.4 µM (inactive) | 16.3 µM (inactive) | 17.3 | 16.1 µM (inactive) |  |  |

— ChEMBL document CHEMBL1201862, “PubChem BioAssay data set” (2004)
